Experiments:
[1] = tested on: OVCA cell lines (A2780S, A2780CP, A2008, C13); experiment: CellTiter-96 MTS proliferation assay quantifying cisplatin-resistance after serial cisplatin treatment; type: cell-based; conditions: cells after serial in vitro cisplatin-treatment/expansion cycles vs cells prior to serial cisplatin treatment
Excerpt: FIGS. 3(A)-(D) are a series of graphs showing BAD-protein phosphorylation is associated with platinum resistance. Cisplatin EC50 so results and percent expression of phosphorylated-BAD at serine-155 (P-BAD155), non-phosphorylated BAD (NP-BAD155), total BAD, and PP2C (PPM1A) in (A) A2780S; (B) A2780CP; (C) A2008; and (D) C13 ovarian cancer cell lines measured by MTS and immunofluorescence, respectively.
Cell lines were induced for platinum resistance. […] Both cisplatin-resistance and genome-wide expression changes were measured serially in each cell line at baseline and after 3 and 6 cisplatin-treatment/expansion cycles. Cisplatin-resistance was quantified using CellTiter-96 MTS proliferation assays (Thermo Fisher Scientific Inc., Waltham, Mass.) and analyzed genome-wide expression using Affymetrix Human U133 Plus 2.0 GeneChips (Affymetrix, Inc., Santa Clara, Calif.) as previously described (Boren, et al., MicroRNAs and their target messenger RNAs associated with ovarian cancer response to chemotherapy. Gynecol Oncol 2009; 113:249-255; Bild, et al., Oncogenic pathway signatures in human cancers as a guide to targeted therapies. Nature 2006; 439:353-357) (Gene Expression Omnibus (GEO) accession number GSE23553).

A2780S and A2780CP cells = experiment: Percent apoptotic nuclei after cisplatin treatment of transfected cells; type: cell-based
Experimental: FIGS. 4(A)-(D) is a composite figure showing modulation of BAD-protein phosphorylation status influences cisplatin sensitivity. OVCA cell lines (A) A2780S and (B) A2780CP were transfected with Flag vectors expressing wild-type BAD (WT) or BAD harboring serine (S) to alanine point mutations in serine-112, -136, or -155(S112A, S136A, S155A). These S to A phosphorylation site mutations prevent phosphorylation of the BAD protein. Transfected cells were treated with vehicle or 1 μM (A2780S) or 10 μM (A2780CP) cisplatin for 48 hours and evaluated for the presence of apoptotic nuclei. (C) Western blot showing depletion of PP2C and PKA by siRNA. Controls included a non-targeting siRNA (NT). GAPDH was used as a loading control. (D) Percent apoptotic nuclei in A2780S cells in the presence of 1 μM cisplatin after siRNA depletion of PKA and PP2C. Error bars indicate standard error of the mean.
Morphologic assessment of condensed chromatin and fragmented DNA quantified percent apoptotic nuclei. Cells were fixed in 4% paraformaldehyde, and nuclei were stained with bis-benzimide trihydrochloride (0.5 μg/ml; Molecular Probes) and quantified using fluorescence microscopy (Marchion, et al., Synergistic interaction between histone deacetylase and topoisomerase II inhibitors is mediated through topoisomerase IIbeta. Clin Cancer Res 2005; 11:8467-8475).
Cells were transfected with siRNA drawn against different BAD pathway proteins. RNA duplexes for PP2C/PPM1A (s10909 from ABI), cAMP-dependent protein kinase (PKA; 6406 from Cell Signaling Technology, Inc., Danvers, Mass.), and vectors containing mutated BAD (pFlag-600) were transfected using the Nucleofector transfection kit, with non-targeting Silencer negative control #2 siRNA (Applied Biosystems, Inc., Foster City, Calif.), according to manufacturer's protocols (Amaxa GmbH, Koeln, Del.). The role of pBAD (serine-155) in cisplatin sensitivity was further evaluated in A2780S cells by depletion of PKA and PP2C/PPM1A using siRNA.

`N.N.[Cl][Pt][Cl]` [cisplatin, cis-diammine-dichloroplatinum] was tested. Which “cisplatin EC50” value [1] did it give?
Its value is “higher cisplatin EC50 values”.

And the cisplatin-induced apoptosis (A2780S and A2780CP cells; A2780S and A2780CP transfected with BAD[S136A], BAD[S155A] vs wild-type BAD, 1 μM (A2780S) or 10 μM (A2780CP) cisplatin, 48 hours)?
The cisplatin-induced apoptosis was “increased cisplatin-induced apoptosis”.

What about the cisplatin-induced apoptosis (A2780S and A2780CP cells; A2780S, siRNA depletion of PKA vs non-targeting control siRNA, 1 μM cisplatin) of the same molecule?
The cisplatin-induced apoptosis was “increased cisplatin-induced apoptosis”.

And the cisplatin-induced apoptosis (A2780S and A2780CP cells; A2780S, siRNA depletion of PP2C/PPM1A, 1 μM cisplatin)?
Its cisplatin-induced apoptosis is “decreased cisplatin-induced apoptosis”.

And the cisplatin sensitivity (A2780S and A2780CP cells; cells transfected with BAD[S112A], 1 μM (A2780S) or 10 μM (A2780CP) cisplatin, 48 hours)?
Its cisplatin sensitivity is “no effect on cisplatin sensitivity”.
